Columns and labels:
[1] = test system: wild-type mice (WTM); test: Prepulse inhibition of startle (PPI) in wild-type mice; assay type: in vivo, mouse; conditions: subcutaneous, 115 db startle, 75 or 80 db prepulse
From the text: (§1) The startle apparatus (SR-Lab, San Diego Instruments) consisted of a Plexiglas cylinder resting on a Plexiglas frame within a ventilated soundproof enclosure. Acoustic noise bursts were presented by. speaker 24 cm above the animal. and a piezo-electric device transduced any consequent motion (flinch) within the cylinder. Two stimulus trial types 1) 115 db startle stimulus only; or 2) 115 db stimulus preceded by a 75 or 80 db prepulse 100 msec before startle simulut onset were randomly presented with a mean intertrial interval of 20 sec. Stimuli were 30 msec in duration and were presented over a constant 65 db white noise background also present during a 5-min adaptation period.
(§2) Mean peak amplitude of the flinch response within a 200 msec window following presentation of the 115 db stimulus was calculated separately for each type of startle trial. Ratios reflecting the amount of inhibition due to the prepulse were calculated by dividing the difference between mean amplitude for startle and prepulse trials by the mean for the startle trials. PPI data are commonly presented in this ratio form to control for overall level of the startle reflex itself.
Imidazenil or alprazolam was dissolved in DMSO, combined with oil, and injected subcutaneously at a volume of 0.1 ml/10 gm of body weight. The amount of DMSO was approximately 1% of total volume. […]

[2] = test system: heterozygous reeler mice (HRM); test: Prepulse inhibition of startle (PPI) in heterozygous reeler mice; assay type: in vivo, mouse; conditions: for auditory PPI deficit in HRM: heterozygous reeler mice, subcutaneous, imidazenil 0.3, 0.6 mg/kg, 115 db startle, 75 or 80 db prepulse
From the text: as §1, §2
Imidazenil or alprazolam was dissolved in DMSO, combined with oil, and injected subcutaneously at a volume of 0.1 ml/10 gm of body weight. The amount of DMSO was approximately 1% of total volume. Vehicle was prepared similarly and vehicle or drug was administered in counterbalanced order using a within-subject design. Following drug administration, the mouse was placed in an isolated cage for 10-15 min before being placed in the startle apparatus. Animals were tested between 11:00 hr and 15:00 hr.

[3] = FIG. 1 dose-response comparison; cited from earlier work
[4] = test system: patas monkeys; conditions: cited from earlier work
[5] = test system: GABAA receptors; conditions: cited from earlier work
[6] = test system: rats; conditions: doses up to 60-fold greater than doses producing anxiolytic and anticonvulsant actions; cited from earlier work
[7] = in nonhuman primates; cited from earlier work
[8] = test system: benzodiazepines binding sites; conditions: cited from earlier work

Row | Compound | PPI of WTM [1] | auditory PPI deficit in HRM [2] | sedation, amnesia, tolerance and dependence liability relative to doses with anxiolytic and anticonvulsant (therapeutic) actions [3] | antagonism of sedative and amnestic actions of alprazolam ([4]; monkeys, doses up to 60-fold greater than doses producing anxiolytic and anticonvulsant actions) | tolerance to the effects during treatment ([4]; patas monkeys, seventeen day treatment) | action on GABAA alpha1 subunit ([5]; GABAA receptors containing alpha1 subunit) | efficacy at GABAA receptor subtypes ([5]; at least eight subtypes of GABAA receptors tested) | intensity of GABA-gated Cl- currents [5] | antagonism of sedative and amnestic actions of alprazolam [6] | T 1/2 (clearance rate) [7] | overall startle level (sedative effect) ([2]; doses of imidazenil (0.3, 0.6 mg/kg) that correct the PPI deficit in HRM) | affinity for benzodiazepines binding sites [8]
1 | Cc1nnc2n1-c1ccc(Cl)cc1C(c1ccccc1)=NC2 [alprazolam, 8chloro-1-methyl-6-phenyl-4-[1,2,4]triazolo[4,3a][1-4]benzodiazepine, reference compound] | decreased PPI in WTM | failed to revert the PPI deficit in HRM | appear with doses that are very close to those that cause anxiolytic and anticonvulsant actions | – | – | – | – | – | – | – | – | –
2 | NC(=O)c1ncn2c1CN=C(c1ccccc1Br)c1cc(F)ccc1-2 [imidazenil, 6-(2 bromophenyl)-8-fluoro-4H-imidazo[1,5a][1,4]benzodiazepine-3-carboxamide] | no primary effects on the PPI of WTM | corrected the auditory PPI deficit in HRM | virtually undetectable | antagonizes the sedative and amnestic actions of alprazolam | no tolerance | does not act on GABAA α1 subunit | partial agonist | never maximizes the intensity of GABA-gated Cl^− currents | antagonizes the sedative and amnestic actions of alprazolam | > 6 h | fail to change the overall startle level | high affinity

— patent publication US6964958B2, “Method of simultaneously treating sensory auditory gating deficit and associated psychosis in schizophrenia and bipolar disorder patients with mania” (priority 2001, dated 2005)
